Results as given in US20150328320A1, “Novel Pharmaceutical Composition” (GLAXOSMITHKLINE LLC, priority 2012, published 2015).
Entries after “also recorded” stand apart in the source; their conditions may differ.

Experiments:
[1] = Trametinib concentration profile as a function of time and Cavitron concentration (FIG. 2)
[2] = Physical stability, photo-stability and relative solubility of the drug substance; format: physicochemical
Description: Several additional challenges exist concerning the use of Compound A in a pediatric formulation.
The potential for unacceptable levels of photo-degradation is of particular importance since photo-catalyzed degradation products may be potentially toxic.

[3] = Aqueous solubility of trametinib in the presence of various solubilizers (FIG. 1); format: physicochemical
Description: FIG. 1 depicts the aqueous solubility of trametinib in the presence of various solubilizers.
As used herein, “solubilizer” is a substance (liquid or solid) that helps to keep the drug uniformly dispersed and dissolved in solution. A solubilizer prevents recrystallization and precipitation of the dissolved drug out of solution. For use in the present invention, suitable solubilizers include, but are not limited to, hypromellose, polyvinylpyrrolidone, sulfobutylether B-cyclodextrin (Captisol) and hydroxypropyl B-cyclodextrin (Cavitron). A combination of solubilizers can also be used. […] Suitably, the amount of solubilizer in a formulation according to the invention will be selected from: about 30 to 95%; suitably about 50 to 80%; suitably about 65 to 75%; by weight of the final product. Suitably, the amount of solubilizer in a formulation according to the invention will be selected from: about 30%; suitably about 35%, suitably about 40%, suitably about 45%, suitably about 50%, suitably about 55%, suitably about 60%, suitably about 65%, suitably about 70%, suitably about 75%, suitably about 80%, suitably about 85%, suitably about 90%, and suitably about 95%, by weight of the final product.

[4] = Effect of HPMC and solubilizers on aqueous solubility of trametinib (FIG. 3); format: physicochemical; conditions: HPMC present in a cavitron solution, initial 1 mg/mL
[5] = system: BRAF V600-mutation positive metastatic melanoma; conditions: subjects with BRAF V600-mutation positive metastatic melanoma, Phase III study; cited from earlier work
[6] = Solubility profile at 0.05 mg/mL using solubilizers as a function of time (FIG. 4); format: physicochemical; conditions: 30 days, 25° C. and 60% relative humidity
[7] = Exposure and absorption upon in vivo administration
Description: Suitably the powder for oral solution (POS) of the current invention contain micronized Compound A where at least 90% of the particles of Compound A are from 1 to 20 microns, suitably from 2.2 to 10.5 microns, such formulations provide an acceptable exposure/absorption profile. Suitably the powder for oral solution (POS) of the current invention contains micronized Compound A where at least 50% of the particles of Compound A are from 1 to 6 microns, suitably from 1.5 to 4.3 microns, such formulations provide an acceptable exposure/absorption profile. Suitably the powder for oral solution (POS) of the current invention contains micronized Compound A where at least 10% of the particles of Compound A are from 0.01 to 3.0 microns, suitably from 0.77 to 1.3 microns, such formulations provide an acceptable exposure/absorption profile. Such formulations help provide safe and effective treatment.

For `CC(=O)Nc1cccc(-n2c(=O)n(C3CC3)c(=O)c3c(Nc4ccc(I)cc4F)n(C)c(=O)c(C)c32)c1` [Compound B, N-{3-[3-cyclopropyl-5-(2-fluoro-4-iodo-phenylamino)-6,8-dimethyl-2,4,7-trioxo-3,4,6,7-tetrahydro-2H-pyrido[4,3-d]pyrimidin-1-yl]phenyl}acetamide], the “precipitation out of solution” value ([1]; starting concentration ~0.05 mg/mL, conditions of FIG. 2) was “no significant amount of the drug will precipitate out of solution” and the “solubility relative to Compound A” value [2] was “much less soluble than Compound A”.
For `CC(=O)Nc1cccc(-n2c(=O)n(C3CC3)c(=O)c3c(Nc4ccc(I)cc4F)n(C)c(=O)c(C)c32)c1` [Compound A, N-{3-[3-cyclopropyl-5-(2-fluoro-4-iodo-phenylamino)-6,8-dimethyl-2,4,7-trioxo-3,4,6,7-tetrahydro-2H-pyrido[4,3-d]pyrimidin-1-yl]phenyl}acetamide dimethyl sulfoxide solvate], the “trametinib concentration remaining in solution” value ([1]; Cavitron solutions, initial concentration 1 mg/mL, after five days) was 7-10 % of the initial concentration, the aqueous solubility ([3]; hypromellose and hydroxypropyl B-cyclodextrin combined) was “good aqueous solubility” and the aqueous solubility ([3]; in hydroxypropyl B-cyclodextrin (Cavitron) formulation) was “greatest solubility”. For the same compound, the aqueous solubility ([3]; in polyethylene glycol (PEG) solution) was “very low aqueous solubility”, the aqueous solubility ([3]; in polyethylene glycol (PEG) solution, listed as Trametinib) was “generally not soluble” and the aqueous solubility ([3]; in propylene glycol solution) was “very low aqueous solubility”. The aqueous solubility ([3]; in propylene glycol solution, listed as Trametinib) was “generally not soluble”, the “stability of solution (precipitation)” value [4] was “increases the stability of trametinib solution” and the anti-tumor activity [5] was “has shown anti-tumor activity”. For the same compound, the “physical stability of the solvate (desolvation)” value ([2]; high humidity or aqueous environment, handling and formulation) was “favors conversion from the dimethyl sulfoxide solvate to the de-solvated form; also recorded: can undergo desolvation”, the photo-stability ([2]; light) was “very sensitive to light; also recorded: can suffer from photo-instability” and the “solubility and solution stability over time” value ([6]; captisol solution) was “able to maintain the solubility and stabilize the solution for 30 days”. The “solubility and solution stability over time” value ([6]; cavitron solution) was “able to maintain the solubility and stabilize the solution for 30 days” and the exposure and absorption [7] was “poor exposure and absorption”.
